Experimental data reported in US9375434B2, “Antitumor effect potentiator composed of imidazooxazine compound” (Taiho Pharmaceutical Co., Ltd., priority 2012, dated 2016).

Legend:
Format in all cases: in vivo, BALB/cA Jcl-nu/nu mice
[1] = tested on: Human ovarian cancer A2780 cell line; experiment: Potentiation of antitumor effect of paclitaxel, A2780 subcutaneous implant in nude mice (Test Example 1)
Description: Human ovarian cancer A2780 cell line was subcutaneously implanted into the right flank of 7-week-old male BALB/cA Jcl-nu/nu mice. After the implant, the length (mm) and the width (mm) of the tumor were measured, and the tumor volume (TV) was calculated. Thereafter, the mice were divided into groups so that the average TV is equalized in each group. The day of grouping (n=5) is referred to as Day 0. […] Test liquids for the groups receiving only Compound-I were prepared by diluting Compound-I with 0.5% hydroxypropyl methylcellulose (HPMC) so as to enable administration at a Compound-I dose of 8 mg/kg/day, 16 mg/kg/day, and 24 mg/kg/day. […] In the groups receiving the two drugs, Compound-I was administered at doses of 8 mg/kg/day, 16 mg/kg/day, and 24 mg/kg/day, and paclitaxel was administered at a dose of 60 mg/kg/day. […] In the figure, the asterisk represents a result having a statistically significant difference compared with the single-drug administration group. FIG. 1 and Table 10 show the results.

[2] = tested on: Human stomach cancer cell line (NCI-N87); experiment: Potentiation of antitumor effect of lapatinib, NCI-N87 subcutaneous implant in nude mice (Test Example 4); settings: compound-I 16 mg/kg/day p.o. day 1-14 (q.d.)
Description: In the figure, the asterisk represents a result having a statistically significant difference compared with the single-drug administration group. FIG. 1 and Table 10 show the results. […] Lapatinib was prepared by adjusting its dose to 100 mg/kg/day. Further, the test liquid of Compound-I was prepared by adjusting its dose to 16 mg/kg/day. […] The effect of the combined administration was also statistically determined in the same manner as in Test Example 1. In the figure and the table, the asterisk represents a result having a statistically significant difference compared with the single-drug administration group. FIG. 7 and Table 13 show the results.

[3] = tested on: Human ovarian cancer cell line (A2780); experiment: Potentiation of antitumor effect of irinotecan, A2780 subcutaneous implant in nude mice (Test Example 5); settings: compound-I 16 mg/kg/day p.o. day 1-14
Description: (§1) As an index of antitumor effect, the TV at Day 15 was measured for each of the drug administration groups, and the relative tumor volume (RTV) relative to Day 1 and T/C (%) were calculated by the following formulas to evaluate the antitumor effect.
(§2) TV (mm^3)=(length×width^2)/2 RTV=(TV at Day 15)/(TV at Day 1) T/C(%)=(average RTV value of the test liquid administration group)/(average RTV value of the control group)×100
Human ovarian cancer cell line (A2780) was subcutaneously implanted into the right flank of 7-week-old male BALB/cA Jcl-nu/nu mice, and was used in the same manner as in Test Example 1. […] Further, the test liquid of Compound-I was prepared by adjusting its dose to 16 mg/kg/day.
The effect of the combined administration was also statistically determined in the same manner as in Test Example 1. […] FIG. 9 and Table 14 show the results. Further, the change in the body weight over time was evaluated as an index of toxicity in the same manner as in Test Example 1.

[4] = tested on: Human stomach cancer cell line (NCI-N87); experiment: Potentiation of antitumor effect of everolimus, NCI-N87 subcutaneous implant in nude mice (Test Example 7); settings: compound-I 16 mg/kg/day p.o. day 1-14
Description: as §1, with “effect. […] In the figure, the asterisk represents a result having a statistically significant difference compared with the single-drug administration group.” for “effect.”
FIG. 1 and Table 10 show the results. TV (mm^3)=(length×width^2)/2 RTV=(TV at Day 15)/(TV at Day 1) T/C(%)=(average RTV value of the test liquid administration group)/(average RTV value of the control group)×100
Human stomach cancer cell line (NCI-N87) was subcutaneously implanted into the right flank of 7-week-old male BALB/cA Jcl-nu/nu mice, and was used in the same manner as in Test Example 1.
In the group receiving only everolimus (IS Chemical Technology), the test liquid was prepared to enable administration at an everolimus dose of 5 mg/kg/day. A vehicle of 5% ethyl alcohol/5% PEG400/4% Tween 20/86% distilled water was used. In the groups receiving only Compound-I, the test liquid was prepared by diluting Compound-I with 0.5% HPMC to enable administration at a Compound-I dose of 16 mg/kg/day. In the combined administration group, Compound-I was administered at a dose of 16 mg/kg/day, and everolimus was administered at a dose of 5 mg/kg/day. Both Compound-I and everolimus were orally administered once a day for 14 days from Day 1, and the evaluation was performed in the same manner as in Test Example 1. FIG. 13 and Table 16 show the results.
In the figure and the table, the asterisk represents a result having a statistically significant difference compared with the single-drug administration group.

[5] = tested on: Human stomach cancer cell line (4-1ST); experiment: Potentiation of effect of trastuzumab (Herceptin), 4-1ST subcutaneous implant in nude mice (Test Example 11); settings: Day 1~14, p.o.
Description: as §1, §2
Human stomach cancer cell line (4-1ST) was subcutaneously implanted into the right flank of 6-week-old male BALB/cA Jcl-nu/nu mice, and was used in the same manner as in Test Example 1.
According to the package insert, 7.2 mL of water for injection was added to a vial containing 150 mg of trastuzumab (Roche Pharma) using a sterilized injection syringe. The resulting 21 mg/mL solution was kept in a freezer. At the time of use, the frozen solution was diluted 10.5-fold with 4.75 mL of physiological saline at a trastuzumab concentration of 2.0 mg/mL, to yield a liquid for administration at a trastuzumab dose of 20 mg/kg/day. The test liquids of Compound-I were prepared to enable administration at doses of 16 and 24 mg/kg/day.
Compound-I and trastuzumab were administered once a day from Day 1 to 14. In the combined administration groups, Compound-I was administrated at a dose of 16 and 24 mg/kg/day, trastuzumab was administrated at a dose of 20 mg/kg/day, and the evaluation was performed in the same manner as in Test Example 1. FIGS. 17A and 17B and Table 20 show the results. In the medium/Compound I administration group, the test liquid was orally administered once a day for consecutive days. In the trastuzumab administration group, the test liquid was intraperitoneally administered once a day for consecutive days.
The effect of the combined administration was statistically determined in the same manner as in Test Example 7.

[6] = compound-I 8 mg/kg/day p.o. day 1-14
[7] = compound-I 16 mg/kg/day p.o. day 1-14
[8] = compound-I 24 mg/kg/day p.o. day 1-14

CC1(O)CC(N)(c2ccc(-c3nc4n(c3-c3ccccc3)COc3ccncc3-4)cc2)C1 (stereo not drawn) [compound-I, trans-3-amino-1-methyl-3-(4-(3-phenyl-5H-imidazo[1,2-c]pyrido[3,4-e][1,3]oxazin-2-yl)phenyl)cyclobutanol]
RTV day 15 Mean ± SD [1, 6]: 23.66 ± 9.16 | T/C (%) [1, 6]: 92% | RTV day 15 Mean ± SD [1, 7]: 19.91 ± 1.41 | T/C (%) [1, 7]: 77% | RTV day 15 Mean ± SD [1, 8]: 18.94 ± 5.52 | T/C (%) [1, 8]: 74% | RTV day 15 Mean ± SD [2]: 1.14 ± 0.11 | T/C (%) [2]: 42% | RTV day 15 Mean ± SD [3]: 19.16 ± 2.60 | T/C (%) [3]: 63% | RTV day 15 Mean ± SD [4]: 1.19 ± 0.27 | T/C (%) [4]: 43% | RTV^b) (mean ± SD) ([5]; compound-I 16 mg/kg/day): 3.01 ± 0.51 | TGI^c) (%) ([5]; compound-I 16 mg/kg/day): 57.5% | RTV^b) (mean ± SD) ([5]; compound-I 24 mg/kg/day): 2.74 ± 0.29 | TGI^c) (%) ([5]; compound-I 24 mg/kg/day): 61.4%
